We go through one sequence from patent publication US10111933B2, “Use of growth hormone fragments” (Metabolic Pharmaceuticals Pty Ltd, priority 2011, dated 2018).

Series [1] deals with tear to the long head of bicep femoris. Kind of series: Case study: hamstring muscle tear. The series is classed as in vivo, human. To be noted: transdermal 600 mcg per dose twice daily, total 40 ml. The source says:
The subject was a professional footballer. The athlete incurred at 2.0 cm tear to the long head of their bicep femoris. […] Some fibre disruption was noted below the tendon junction coming from the insertion. The length of the tear was 1.5 cm. The fusiform belly region around the injury was highly inflamed.
The subject undertook an intervention of AOD9604 (SEQ ID NO: 1) at 600 mcg per dose. They applied one ml twice daily. The transdermal application was at 600 mcg per ml. The total application was 40 ml.

Series [2] concerns C2C12 cells. Kind of series: C2C12 myotube quantification (Bodipy staining). The series is classed as cell-based. Particulars: over 72 hours, FIG. 11. How it is done:
For myotube quantification the cells were stained with Bodipy (Invitrogen, 1/1000 PBS) according to the manufacturer's directions. The number of myotubes that developed over 72 hours was determined and expressed as a percent of total cells in culture (n=3, 100 cells/culture).
The data was expressed as mean±SD. The data was expressed as mean±SD. Significance was determined using two way ANOVA followed by Tukey's post hoc test when multiple groups were being evaluated. T test was utilized if 2 groups were being compared. Significance was assigned at p values <0.05.

Series [3] relates to rabbit collagenase model of osteoarthritis. Kind of series: Rabbit collagenase model of osteoarthritis, intra-articular administration. To be noted: 4 weekly intra-articular injections of 0.25 mg, 9 weeks post collagenase. The series is classed as in vivo, New Zealand White Rabbit. How it is done:
AOD9604 (SEQ ID NO: 1) was provided by Metabolic Pharmaceutical Pty Ltd.
Treatments groups: 32 rabbits were each given a 2 mg collagenase injection into their right knee joint, followed by a second injection 3 days later to induce osteoarthritis. After 4 weeks, the rabbits were divided into 4 groups of 8 for subsequent treatments.
Group 1 received 4 weekly injections of vehicle (disease control group).
Group 2 received 4 weekly injections of 6 mg of HA-hyuran-plus (HA positive control group).
Group 3 received 4 weekly injections of 0.25 mg of AOD9604 (AOD only group).
Group 4 received 4 weekly injections of both HA and AOD9604 (combination group).
Clinical observations were made by direct observation daily to assess lameness (as described in Kim et al., (2010) supra). At 9 weeks post initial collagenase injection the animals were euthanized.
Gross observation of the right and left knee joints was performed after dissection and scored for damage (as described in Kim et al., (2010) supra). Histological analysis of lateral and medial condyles from each joint was performed and scored.
A statistical analysis of the data was performed and the results are shown in FIGS. 13 (Group 1), 14 (Group 2), 15 (Group 3) and 16 (Group 4).

The test system of series [4] is Cartilage explants (native cartilage). Kind of series: Native cartilage explant culture. The series is classed as cell-based, calf. How it is done: Cartilage explants were taken from calf metacarpal-carpal joints and placed in culture in Ham's F-12 supplemented with 20% fetal bovine serum (FBS) in the presence and absence of AOD9604 (SEQ ID NO: 1) (10 or 100 μg/ml) for 1 week or (100 or 500 μg/ml) for 2 weeks.
The tissue was harvested and water content and dry weight measured. The tissue was then digested with papain (Sigma, 40 μg/ml) for 48 h at 65° C. DNA content was determined using the Hoechst 33258 dye binding assay (Polysciences) and fluorometry (excitation 365 nm, emission 458 nm). Proteoglycan content was determined by measuring the amount of sulphated glycosaminoglycans using the dimethylmethylene blue dye binding assay and spectrophotometry (525 nm). Collagen content was determined by measuring the hydroxyproline content of an aliquot of the papain digest hydrolyzed in 6N HCl for 18 h at 110° C. The hydroxyproline content was determined using the chloramine-T/Ehrlich's reagent assay and spectrophotometry (560 nm). The cellularity was quantified by measuring the DNA content using Hoescht 33258 dye binding assay (Polysciences) and fluorometry (excitation 365 nm, emission 458 nm.
All experiments were done three times and each condition was done in triplicate. The data was expressed as mean±SD. […]. Significance was determined using two way ANOVA followed by Tukey's post hoc test when multiple groups were being evaluated. T test was utilized if 2 groups were being compared. Significance was assigned at p values <0.05.

For series [5], the system named is contusion to the rectus femoris. Kind of series: Case study: corked quad, hematoma. The series is classed as in vivo, human. To be noted: transdermal 600 mcg per dose twice daily, total 20 ml. The source says:
The subject was a professional footballer. The athlete incurred a contusion to the rectus femoris adjacent to the central tendon. The MRI indicated an area of 2.0 cm area for the contusion. […] There was a minor degree of associated edema associated with the pathology. The MRI confirmed that there was fibre disruption but no true tear. The central tendon remained intact. The injury was an acute injury. The athlete identified discomfort on weight bearing movement and the mass was easily palpatable. Any hip flexion movement could induce discomfort and awareness of the injury. Although the muscle is not considered a dominant muscle in knee extension movement the affected area was painful and inducing discomfort with such work.
The subject undertook an intervention of AOD9604 (SEQ ID NO: 1) at 600 mcg per dose. They applied one ml twice daily. The transdermal application was at 600 mcg per ml. The total application was 20 ml.

The subject of series [6] is IGF-1. To be noted: effective dose, clinical trials; cited from earlier work.
Series [7] has as its system 1.5 cm tear on soleus. Kind of series: Case study: calf muscle (soleus) tear. To be noted: transdermal 600 mcg per dose twice daily, total 20 ml. The series is classed as in vivo, human. The source says:
The subject was a professional footballer. The athlete incurred at 1.5 cm tear on their soleus near the adjacent aponeurosis to the gastrocnemius. […] A 1.5 cm tear is considered a moderately large tear for the region. […] The fibre tears were directional with the orientation of the fibres. The length of the tear was 1.5 cm.
The subject undertook an intervention of AOD9604 (SEQ ID NO: 1) at 600 mcg per dose. He applied one ml twice daily. The transdermal application was at 600 mcg per ml. The total application was 20 ml.

Entries after “also recorded” stand apart in the source; their conditions may differ. Ends that are not written are not given here.

Take “YLRIVQCRSVEGSCGF (cysteine pairing not given here) [AOD9604]”: in series [1], the “follow up MRI” value was “full integrity had returned to the bicep femoris long head”, the “residual pain or discomfort” value was “no residual pain or discomfort”, the resolution of injury result was “resolved in three weeks” and the “return to weight bearing activities” value was “returned to full weight bearing activities”. The formation of myotubes result in series [2] is “no affect”. For the same sequence, the formation of myotubes result in series [2] (listed as AOD) is given as “does not enhance”. The “regeneration compared to control (histological analysis of condyles)” value in series [3] is “has regenerative power compared to control”. In addition, the “effect on native cartilage” value in series [4] (500 μg/ml, FIGS. 5-8) is on record as “no effect”. Further, the “proteoglycan content of native cartilage” value in series [4] (FIGS. 5 and 7) is given as “does not affect”. Moreover, in series [4] (FIGS. 6 and 8), the “collagen content of native cartilage” value is recorded as “does not affect”. The “toxicity / DNA content of native cartilage” value in series [4] (up to 500 μg/ml, 2 weeks of treatment, FIG. 4, listed as AOD) was “not toxic; also recorded: no effect”. Further, in series [5], the “pain or discomfort on resumed weight bearing” value is reported as “no immediate pain or discomfort”, the resolution of injury result was “resolved in two weeks”, the “return to weight bearing activity” value is listed as “returned to full weight bearing activity” and the “subsequent MRI” value was “return to full anatomical integrity”. In series [6], the “plasma level of IGF-1” value is listed as “did not elevate”. Besides, in series [7], the “follow up MRI” value was “full integrity had returned to the injury”, the “residual pain or discomfort” value is reported as “no residual pain or discomfort”, the resolution of injury result is listed as “resolved in two weeks” and the “return to weight bearing activities” value was “returned to full weight bearing activities”.
